Assay results as given in paper PMC7211195 (Investigational New Drugs, 2019).
Values joined by “and” are separate entries in the source; they are usually repeats but may differ in a detail not shown here. Identical values can stand only once.

Test: Lapatinib pharmacokinetics and uptake in rat brain tissue (BT);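 on BT corr (BT homogenate corrected), single rat: brain concentration corrected for residual brain blood by the Fridén method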;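 on BT corr (BT homogenate), single rat: brain concentration corrected for residual brain blood by the Fridén method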
Assay type: in vivo, rats
Settings: for BT corr (BT homogenate), S / BT corr (BT homogenate), single rat: lapatinib 100 mg/kg + elacridar; for BT corr (BT homogenate corrected), single rat: lapatinib p.o. 100 mg/kg alone, 100 mg/kg
Experimental: This study was conducted on rats, which are a promising model to predict P-gp-based drug-drug interactions at the human BBB [15]. The animals were allowed to acclimate for one week before the beginning of the experiments. Adult male Wistar-strain rats (weight 470–525 g) were used in the study. The animals were maintained under standard breeding conditions with a 12/12 h light-dark cycle (lights on at 6.00 a.m., lights off at 6.00 p.m.) at constant room temperature (23 ± 2 °C), relative humidity (55 ± 10%) and ad libitum access to food and water. The experimental protocol for this study was reviewed and approved by the Local Ethics Committee. To obtain consistent data, the study was based on the required minimum number of animals and observation time. […] Three rats were used at each time point (n = 3). In total, the research was conducted on 66 animals (n = 33 in the experimental group and n = 33 in the control group).
Elacridar was freshly dissolved in a vehicle at an initial concentration of 20 mg/mL. […] A volume of 80 μL of blood was collected from each rat by cutting off a piece of its tail. The blood samples were collected into heparinized test tubes at the following time points: […], and they were immediately centrifuged at 2880 g for 10 min at 4 °C. The anaesthetized rats (anaesthetized by intramuscular administration of 50 mg/kg ketamine and 10 mg/kg xylazine) were prepared for cisterna magna puncture. The hair over the puncture was removed and the skin was disinfected with alcohol. The animals were placed in a recumbent position with an elevated rear part of the body. The animals’ heads were slightly flexed and immobilized with the operator’s left hand. The space between the occiput rostrally and the atlas (C1) of the spinal column caudally was gently palpated with the left thumb. A 0.7 × 20 G needle with polyethylene tubing (Terumo Poland, Warsaw, Poland) was gently inserted at an approximate angle of 80–90° through the skin with the operator’s right hand into the midsagittal region. The moment that dura mater perforation was perceptible, a small amount of CSF was found in the needle tubing. To sample additional CSF, a 1 mL insulin syringe (Becton Dickinson, Warsaw, Poland) was used to collect 80–120 μL of CSF by very gentle aspiration. Only clear CSF was collected for further analysis. […] The animals’ brains were immediately dissected, washed in 0.9% NaCl and divided along the longitudinal axis. One of the brain hemispheres was again rinsed three times with 5 mL of 0.9% NaCl, weighed and homogenized with 0.9% NaCl (4 mL per 1 g of BT) in an Ultra-Turrax homogenizer (Witko, Łódź, Poland). The homogenate was then centrifuged at 4500 g for 10 min. All samples of the rat BP, CSF, and BT homogenate supernatant were stored at −80 °C until analysis.
The chromatographic analysis was conducted using a 1260 Infinity system (Agilent Technologies, Santa Clara, USA) equipped with a Kinetex® C18 column (50 × 4.6 mm, 2.6 μm, Phenomenex, Torrance, USA), which was maintained at 35 °C. The mobile phase consisted of 0.1% formic acid (v/v) in water with 5 mM ammonium formate (solvent A) and acetonitrile with 10% phase A (v/v, solvent B). The analyte and internal standard (IS, erlotinib) were eluted using a gradient run of 10 min as follows: 95% A at 0–2 min; 95%–5% A at 2–4 min; 5% A at 4–5 min; 5%–95% A at 5–6 min; 95% A at 6–10 min. The flow rate and injection volume were set at 0.7 mL/min and 10 μL, respectively. The needle was washed for 30 s in a mixture of acetonitrile, methanol, isopropanol, water, and formic acid (50:20:15:15:0.25, v/v/v/v/v).

AUC0-∞ increase by elacridar (BT): 1.9 times
Cmax increase in IE+L vs control (BT): 1.55 fold and 1.5 fold
Kp decrease in IL+E group vs control (BT): 25%
t0.5 longer in the presence of elacridar (BT): 2.5 times
AUC0-t increased in IE+L (BT, IE+L vs IIL group): 92.6%
AUC0-∞ increase with elacridar (BT, IE+L vs IIL group): 86.5%
Cmax increase with elacridar (BT, IE+L vs IIL group): 54.7%
AUMC0-t (brain tissue, lapatinib 100 mg/kg oral + 5 mg/kg elacridar (IE+L), first AUMC0-t line (r32)): 16,040.19 ± 2981.02 ng × h^2/mL
AUMC0-t (brain tissue, lapatinib 100 mg/kg oral + 5 mg/kg elacridar (IE+L), second AUMC0-t line (r33)): 57,148.33 ± 29,162.29 ng × h^2/mL
MRT0-t (brain tissue, lapatinib 100 mg/kg oral alone (IIL)): 5.73 ± 0.06 h
AUMC0-t (brain tissue, lapatinib 100 mg/kg oral alone (IIL), first AUMC0-t line (r32)): 4792.63 ± 173.92 ng × h^2/mL
AUMC0-t (brain tissue, lapatinib 100 mg/kg oral alone (IIL), second AUMC0-t line (r33)): 17,455.77 ± 17,542.73 ng × h^2/mL
BT corr (BT homogenate), S (0.25 h): 33.08 ng/mL
BT corr (BT homogenate), single rat (0.25 h): 35.46 ng/mL
BT corr (BT homogenate), single rat (0.25 h, listed as Lapatinib): 35.46 ng/mL
BT corr (BT homogenate), S (0.5 h): 43.57 ng/mL
BT corr (BT homogenate), single rat (0.5 h): 41.98 ng/mL
BT corr (BT homogenate), single rat (0.5 h, listed as Lapatinib): 41.98 ng/mL
BT corr (BT homogenate), single rat (2 h): 39.78 ng/mL and 102.9 ng/mL
BT corr (BT homogenate), single rat (2 h, listed as Lapatinib): 39.78 ng/mL and 102.90 ng/mL
BT corr (BT homogenate), S (3 h): 197.6723 ng/mL
BT corr (BT homogenate), single rat (3 h): 170.09 ng/mL and 225.26 ng/mL
BT corr (BT homogenate), single rat (3 h, listed as Lapatinib): 225.26 ng/mL
BT corr (BT homogenate), S (4 h): 85.05 ng/mL
BT corr (BT homogenate), single rat (4 h): 91.94 ng/mL
BT corr (BT homogenate), S (6 h): 85.7722 ng/mL
BT corr (BT homogenate), single rat (6 h): 84.2 ng/mL
BT corr (BT homogenate), single rat (6 h, listed as Lapatinib): 84.20 ng/mL
BT corr (BT homogenate), S (8 h): 85.02 ng/mL
BT corr (BT homogenate), single rat (12 h): 45.12 ng/mL
BT corr (BT homogenate), single rat (12 h, listed as Lapatinib): 45.12 ng/mL
BT corr (BT homogenate), S (24 h): 44.69 ng/mL
BT corr (BT homogenate), single rat (24 h): 36.68 ng/mL
BT corr (BT homogenate), single rat (24 h, listed as Lapatinib): 36.68 ng/mL
BT corr (BT homogenate corrected), single rat (0.25 h): 33.26 ng/mL
BT corr (BT homogenate corrected), single rat (0.25 h, listed as Lapatinib): 33.26 ng/mL
BT corr (BT homogenate corrected), single rat (0.5 h): 39.02 ng/mL
BT corr (BT homogenate corrected), single rat (0.5 h, listed as Lapatinib): 39.02 ng/mL
SMILES: CS(=O)(=O)CCNCc1ccc(-c2ccc3ncnc(Nc4ccc(OCc5cccc(F)c5)c(Cl)c4)c3c2)o1 [lapatinib, N-{3-Chloro-4-[(3-fluorobenzyl)oxy]phenyl}-6-[5-({[2-(methylsulfonyl)ethyl]amino}methyl)-2-furyl]-4-quinazolinamine]
